Results reported in US20200289523A1, “FIXED DOSED PHARMACEUTICAL COMPOSITION COMPRISING AMIODIPINE, CANDESARTAN CILEXETIL AND HYDROCHLOROTHIAZIDE FOR THE TREATMENT OF HYPERTENSION” (MIDAS PHARMA GMBH, priority 2016, published 2020).

Legend:
[1] = In-vitro dissolution of tablets (Ph. Eur. 2.9.3/USP <711>); format: physicochemical; settings: on changes of the composition of the formulation
Description: The in-vitro dissolution of tablets was analyzed according to Ph.

[2] = Solubility in various standard dissolution media (FIG. 1); format: physicochemical; settings: at low pH-values

NS(=O)(=O)c1cc2c(cc1Cl)NCNS2(=O)=O [Hydrochlorothiazide, 6-chloro-1,1-dioxo-3,4-dihydro-2H-1,2,4-benzothiadiazine-7-sulfonamide]
dissolution profile of Hydrochlorothiazide [1]: not influenced by changes of the composition

CCOc1nc2cccc(C(=O)OC(C)OC(=O)OC3CCCCC3)c2n1Cc1ccc(-c2ccccc2-c2nnn[nH]2)cc1 (centres unmarked) [Candesartan cilexetil]
solubility [2]: barely soluble
